Assay results published in ChEMBL document CHEMBL5303765, “Data for DCP probe BAY-7081” (2023).

Columns and labels:
[1] = target: Serine/threonine-protein kinase PAK 1 (Homo sapiens) (UniProt Q13153); test: PAK1 SGC Tm panel (DSF); conditions: for ΔTm: Compound concentration 10.0 uM
[2] = target: Sodium-dependent noradrenaline transporter (Homo sapiens) (UniProt P23975); conditions: Compound concentration 10.0 uM
[3] = target: Ephrin type-A receptor 2 (Homo sapiens) (UniProt P29317); test: EPHA2 SGC Tm panel (DSF); conditions: for ΔTm: Compound concentration 10.0 uM
Ephrin type-A receptor 2 (Homo sapiens), sequence (P29317 whole entry): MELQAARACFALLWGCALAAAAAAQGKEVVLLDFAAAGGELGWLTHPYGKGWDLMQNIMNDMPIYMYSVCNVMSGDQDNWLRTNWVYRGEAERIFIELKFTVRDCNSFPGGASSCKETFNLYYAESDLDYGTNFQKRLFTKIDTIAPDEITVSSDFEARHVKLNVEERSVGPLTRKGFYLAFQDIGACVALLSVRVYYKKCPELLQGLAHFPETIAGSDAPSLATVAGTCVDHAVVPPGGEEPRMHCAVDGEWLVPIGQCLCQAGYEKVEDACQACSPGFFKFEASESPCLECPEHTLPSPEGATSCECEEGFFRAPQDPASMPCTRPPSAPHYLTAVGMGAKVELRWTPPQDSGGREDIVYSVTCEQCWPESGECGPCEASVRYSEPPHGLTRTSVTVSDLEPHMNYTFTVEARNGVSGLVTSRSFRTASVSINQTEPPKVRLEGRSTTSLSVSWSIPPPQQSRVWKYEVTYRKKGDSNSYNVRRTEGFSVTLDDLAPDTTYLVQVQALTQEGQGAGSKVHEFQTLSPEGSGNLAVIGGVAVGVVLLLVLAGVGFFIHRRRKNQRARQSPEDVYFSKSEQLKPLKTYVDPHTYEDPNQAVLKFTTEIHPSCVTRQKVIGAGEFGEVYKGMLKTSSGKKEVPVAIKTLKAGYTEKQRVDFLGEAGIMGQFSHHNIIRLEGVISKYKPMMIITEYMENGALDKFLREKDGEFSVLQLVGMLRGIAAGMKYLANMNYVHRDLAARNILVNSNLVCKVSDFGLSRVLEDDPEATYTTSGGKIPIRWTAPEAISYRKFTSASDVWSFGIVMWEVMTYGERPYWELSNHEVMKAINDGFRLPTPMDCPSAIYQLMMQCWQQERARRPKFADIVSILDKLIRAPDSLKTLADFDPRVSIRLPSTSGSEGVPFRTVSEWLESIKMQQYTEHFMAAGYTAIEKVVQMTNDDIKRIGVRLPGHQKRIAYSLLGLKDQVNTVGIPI

[4] = target: T1, Ferrochelatase, mitochondrial (Homo sapiens) (UniProt P22830); test: FECHHS SGC Tm panel (DSF); conditions: for ΔTm: Compound concentration 10.0 uM
T1 sequence (whole entry): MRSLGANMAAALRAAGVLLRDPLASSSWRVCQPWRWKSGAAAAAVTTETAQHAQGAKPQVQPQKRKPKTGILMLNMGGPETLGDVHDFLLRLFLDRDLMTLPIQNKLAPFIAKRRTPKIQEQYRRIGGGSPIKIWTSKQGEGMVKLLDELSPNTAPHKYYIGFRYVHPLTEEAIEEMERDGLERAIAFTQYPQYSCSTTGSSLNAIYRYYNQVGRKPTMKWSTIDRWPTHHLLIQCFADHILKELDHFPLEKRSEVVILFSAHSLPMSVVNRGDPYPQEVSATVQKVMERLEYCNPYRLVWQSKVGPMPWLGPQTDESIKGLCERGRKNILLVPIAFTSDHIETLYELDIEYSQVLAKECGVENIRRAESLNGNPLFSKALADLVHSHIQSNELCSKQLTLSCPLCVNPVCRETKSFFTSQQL

[5] = target: T2, Membrane-associated tyrosine- and threonine-specific cdc2-inhibitory kinase (Homo sapiens) (UniProt Q99640); test: PKMYT1 SGC Tm panel (DSF); conditions: for ΔTm: Compound concentration 10.0 uM
T2 sequence (whole entry): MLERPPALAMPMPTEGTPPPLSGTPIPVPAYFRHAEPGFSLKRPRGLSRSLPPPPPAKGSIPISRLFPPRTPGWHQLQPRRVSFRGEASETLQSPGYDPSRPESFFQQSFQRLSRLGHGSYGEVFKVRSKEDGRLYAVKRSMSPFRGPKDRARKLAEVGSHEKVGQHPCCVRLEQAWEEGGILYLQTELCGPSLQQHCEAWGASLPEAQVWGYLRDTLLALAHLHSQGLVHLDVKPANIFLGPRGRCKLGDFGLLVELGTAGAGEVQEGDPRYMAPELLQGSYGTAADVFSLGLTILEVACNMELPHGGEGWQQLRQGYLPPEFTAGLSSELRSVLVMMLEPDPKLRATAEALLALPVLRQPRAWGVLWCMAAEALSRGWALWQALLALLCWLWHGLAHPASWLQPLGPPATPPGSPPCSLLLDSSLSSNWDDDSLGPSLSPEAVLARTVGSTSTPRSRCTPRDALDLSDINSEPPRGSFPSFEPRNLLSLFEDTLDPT

[6] = target: T3, Mitogen-activated protein kinase 15 (Homo sapiens) (UniProt Q8TD08); test: MAPK15 SGC Tm panel (DSF); conditions: for ΔTm: Compound concentration 10.0 uM
T3 sequence (whole entry): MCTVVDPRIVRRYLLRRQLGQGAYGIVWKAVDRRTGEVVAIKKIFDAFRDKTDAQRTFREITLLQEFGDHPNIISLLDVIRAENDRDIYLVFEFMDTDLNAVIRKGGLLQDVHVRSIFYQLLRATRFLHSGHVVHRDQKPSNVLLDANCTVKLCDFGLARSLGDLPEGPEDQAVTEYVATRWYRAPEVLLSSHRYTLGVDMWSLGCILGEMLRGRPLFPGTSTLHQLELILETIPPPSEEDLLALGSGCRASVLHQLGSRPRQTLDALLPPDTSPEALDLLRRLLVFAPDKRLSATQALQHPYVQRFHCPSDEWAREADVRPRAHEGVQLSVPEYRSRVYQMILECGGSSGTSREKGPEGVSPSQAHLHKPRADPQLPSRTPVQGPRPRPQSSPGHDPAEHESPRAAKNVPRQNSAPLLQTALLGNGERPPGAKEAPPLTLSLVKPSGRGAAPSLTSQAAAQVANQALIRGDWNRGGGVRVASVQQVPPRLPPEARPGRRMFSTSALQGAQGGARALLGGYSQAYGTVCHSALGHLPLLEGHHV

[7] = target: Mitogen-activated protein kinase 10 (Homo sapiens) (UniProt P53779); test: MAPK10 SGC Tm panel (DSF); conditions: for ΔTm: Compound concentration 10.0 uM
Mitogen-activated protein kinase 10 (Homo sapiens), sequence (P53779 whole entry): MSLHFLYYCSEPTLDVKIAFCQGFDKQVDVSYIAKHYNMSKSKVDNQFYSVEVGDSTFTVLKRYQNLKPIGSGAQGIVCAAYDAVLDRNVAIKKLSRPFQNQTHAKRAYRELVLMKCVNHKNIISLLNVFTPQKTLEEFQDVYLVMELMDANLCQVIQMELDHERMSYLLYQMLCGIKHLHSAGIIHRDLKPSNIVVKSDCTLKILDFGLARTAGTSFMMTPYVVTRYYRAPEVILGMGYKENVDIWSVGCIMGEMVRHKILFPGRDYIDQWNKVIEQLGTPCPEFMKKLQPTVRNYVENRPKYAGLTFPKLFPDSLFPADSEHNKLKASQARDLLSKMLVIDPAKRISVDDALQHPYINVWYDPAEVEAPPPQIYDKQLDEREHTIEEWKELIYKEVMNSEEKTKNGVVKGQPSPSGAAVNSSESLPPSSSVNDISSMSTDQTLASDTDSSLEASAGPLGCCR

[8] = target: Cyclin-dependent kinase-like 1 (Homo sapiens) (UniProt Q00532); test: CDKL1 SGC Tm panel (DSF); conditions: for ΔTm: Compound concentration 10.0 uM
Cyclin-dependent kinase-like 1 (Homo sapiens), sequence (Q00532 whole entry): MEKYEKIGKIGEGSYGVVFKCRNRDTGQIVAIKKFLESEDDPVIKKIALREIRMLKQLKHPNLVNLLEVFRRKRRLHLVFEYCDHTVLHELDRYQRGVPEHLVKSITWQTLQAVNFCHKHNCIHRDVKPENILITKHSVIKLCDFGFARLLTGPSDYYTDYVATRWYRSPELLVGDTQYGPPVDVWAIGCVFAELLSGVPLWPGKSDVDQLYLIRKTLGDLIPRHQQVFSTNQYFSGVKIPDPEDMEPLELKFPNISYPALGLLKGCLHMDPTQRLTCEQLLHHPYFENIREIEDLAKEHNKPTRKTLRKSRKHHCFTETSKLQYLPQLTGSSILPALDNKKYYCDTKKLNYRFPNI

[9] = target: Mitogen-activated protein kinase 8 (Homo sapiens) (UniProt P45983); test: MAPK8 SGC Tm panel (DSF); conditions: for ΔTm: Compound concentration 10.0 uM
Mitogen-activated protein kinase 8 (Homo sapiens), sequence (P45983 whole entry): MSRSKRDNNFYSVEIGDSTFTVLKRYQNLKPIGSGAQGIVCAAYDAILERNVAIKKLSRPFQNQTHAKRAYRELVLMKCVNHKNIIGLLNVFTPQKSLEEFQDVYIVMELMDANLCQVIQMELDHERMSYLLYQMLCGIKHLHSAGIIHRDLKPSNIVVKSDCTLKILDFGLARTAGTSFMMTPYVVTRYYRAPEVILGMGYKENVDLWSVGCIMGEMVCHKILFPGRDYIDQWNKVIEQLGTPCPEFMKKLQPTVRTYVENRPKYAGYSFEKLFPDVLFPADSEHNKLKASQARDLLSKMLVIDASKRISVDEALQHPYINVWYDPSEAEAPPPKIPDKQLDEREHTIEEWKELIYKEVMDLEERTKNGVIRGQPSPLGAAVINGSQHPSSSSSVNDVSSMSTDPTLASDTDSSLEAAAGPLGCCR

[10] = target: 5-hydroxytryptamine receptor 1D (Homo sapiens) (UniProt P28221); conditions: Compound concentration 10.0 uM
5-hydroxytryptamine receptor 1D (Homo sapiens), sequence (P28221 whole entry): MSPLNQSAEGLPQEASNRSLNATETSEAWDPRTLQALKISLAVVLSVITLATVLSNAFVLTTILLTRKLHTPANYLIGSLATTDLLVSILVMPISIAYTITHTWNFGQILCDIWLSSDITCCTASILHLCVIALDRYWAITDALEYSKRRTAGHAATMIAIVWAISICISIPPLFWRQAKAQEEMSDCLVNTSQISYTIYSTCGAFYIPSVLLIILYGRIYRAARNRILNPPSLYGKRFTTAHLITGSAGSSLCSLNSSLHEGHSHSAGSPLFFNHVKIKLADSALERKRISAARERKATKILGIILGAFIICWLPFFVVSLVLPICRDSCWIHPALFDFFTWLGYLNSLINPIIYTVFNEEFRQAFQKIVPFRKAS

[11] = target: RAC-gamma serine/threonine-protein kinase (Homo sapiens) (UniProt Q9Y243); test: AKT3 SGC Tm panel (DSF); conditions: for ΔTm: Compound concentration 10.0 uM
RAC-gamma serine/threonine-protein kinase (Homo sapiens), sequence (Q9Y243 whole entry): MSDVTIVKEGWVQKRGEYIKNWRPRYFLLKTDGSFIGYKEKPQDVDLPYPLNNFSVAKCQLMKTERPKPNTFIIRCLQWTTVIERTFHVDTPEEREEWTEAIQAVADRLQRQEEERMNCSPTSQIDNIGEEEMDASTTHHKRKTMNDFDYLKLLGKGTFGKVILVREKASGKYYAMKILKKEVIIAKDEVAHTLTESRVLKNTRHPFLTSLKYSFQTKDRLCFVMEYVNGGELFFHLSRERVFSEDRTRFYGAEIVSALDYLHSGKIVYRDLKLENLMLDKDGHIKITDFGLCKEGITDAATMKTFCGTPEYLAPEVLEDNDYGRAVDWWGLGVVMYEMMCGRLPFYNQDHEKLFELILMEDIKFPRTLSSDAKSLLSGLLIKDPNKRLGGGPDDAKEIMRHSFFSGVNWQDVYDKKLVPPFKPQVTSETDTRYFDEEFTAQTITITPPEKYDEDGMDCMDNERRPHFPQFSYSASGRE

Serine/threonine-protein kinase PAK 1 (Homo sapiens), sequence (Q13153 whole entry): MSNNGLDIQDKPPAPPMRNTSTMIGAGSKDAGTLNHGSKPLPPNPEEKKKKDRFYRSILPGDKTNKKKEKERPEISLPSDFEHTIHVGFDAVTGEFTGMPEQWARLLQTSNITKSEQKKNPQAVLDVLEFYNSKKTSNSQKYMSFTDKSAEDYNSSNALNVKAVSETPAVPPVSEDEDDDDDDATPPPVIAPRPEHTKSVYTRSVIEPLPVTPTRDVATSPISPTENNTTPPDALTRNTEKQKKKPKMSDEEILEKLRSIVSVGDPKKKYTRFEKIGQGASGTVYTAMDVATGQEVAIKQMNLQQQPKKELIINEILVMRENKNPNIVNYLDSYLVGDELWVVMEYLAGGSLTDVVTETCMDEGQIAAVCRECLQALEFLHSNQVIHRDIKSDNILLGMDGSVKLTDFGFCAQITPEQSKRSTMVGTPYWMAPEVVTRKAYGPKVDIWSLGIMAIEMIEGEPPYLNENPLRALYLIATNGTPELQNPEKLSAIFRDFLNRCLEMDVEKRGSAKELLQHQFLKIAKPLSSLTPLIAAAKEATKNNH
Sodium-dependent noradrenaline transporter (Homo sapiens), sequence (P23975 whole entry): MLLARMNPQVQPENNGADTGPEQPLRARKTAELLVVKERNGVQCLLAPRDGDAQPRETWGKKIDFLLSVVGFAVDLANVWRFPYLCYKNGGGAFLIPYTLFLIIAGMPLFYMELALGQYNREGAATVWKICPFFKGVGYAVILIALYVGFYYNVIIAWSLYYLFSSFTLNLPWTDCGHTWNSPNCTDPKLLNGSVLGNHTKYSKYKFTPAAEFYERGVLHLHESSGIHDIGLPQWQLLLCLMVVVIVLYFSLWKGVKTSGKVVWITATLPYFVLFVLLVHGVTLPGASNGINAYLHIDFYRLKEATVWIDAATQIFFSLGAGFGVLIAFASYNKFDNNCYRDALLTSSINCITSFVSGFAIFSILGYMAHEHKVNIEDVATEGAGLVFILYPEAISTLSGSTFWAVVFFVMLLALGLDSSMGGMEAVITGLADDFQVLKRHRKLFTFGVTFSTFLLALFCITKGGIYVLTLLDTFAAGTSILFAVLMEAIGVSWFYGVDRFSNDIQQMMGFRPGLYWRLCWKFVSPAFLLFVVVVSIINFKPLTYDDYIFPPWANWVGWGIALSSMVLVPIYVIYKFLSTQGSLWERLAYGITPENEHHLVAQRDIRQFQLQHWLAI

How did the delta Tm Staurosporine positive control [1] turn out when `CCC[C@@H]1CNCc2c1[nH]c(=O)c(C#N)c2N1CCC2(CC1)CC2` was run?
The delta Tm Staurosporine positive control was 7.21.

And the ΔTm [1]?
Its ΔTm is -0.679.

And the inhibition [2]?
Its inhibition is -7.72%.

What about the delta Tm Staurosporine positive control [3] of the same molecule?
The delta Tm Staurosporine positive control was 7.41.

And the ΔTm [3]?
Its ΔTm is -0.623.

And the delta Tm Staurosporine positive control [4]?
The delta Tm Staurosporine positive control was 2.89.

What about the ΔTm [4] of the same molecule?
The ΔTm was -1.34.

What about the delta Tm Staurosporine positive control [5] of the same molecule?
Its delta Tm Staurosporine positive control is 0.0474.

And the ΔTm [5]?
The ΔTm was -0.384.

What about the delta Tm Staurosporine positive control [6] of the same molecule?
Its delta Tm Staurosporine positive control is 16.4.

And the ΔTm [6]?
The ΔTm was 0.0332.

What about the delta Tm Staurosporine positive control [7] of the same molecule?
Its delta Tm Staurosporine positive control is 6.75.

What about the ΔTm [7] of the same molecule?
The ΔTm was -0.405.

What about the delta Tm Staurosporine positive control [8] of the same molecule?
Its delta Tm Staurosporine positive control is 7.07.

And the ΔTm [8]?
The ΔTm was -0.229.

What about the delta Tm Staurosporine positive control [9] of the same molecule?
The delta Tm Staurosporine positive control was 7.45.

And the ΔTm [9]?
The ΔTm was -0.293.

And the inhibition [10]?
Its inhibition is 35%.

What about the delta Tm Staurosporine positive control [11] of the same molecule?
Its delta Tm Staurosporine positive control is 7.15.

What about the ΔTm [11] of the same molecule?
Its ΔTm is -0.39.

Which results are given for `CCC[C@H]1CNCc2c1[nH]c(=O)c(C#N)c2N1CCC2(CC1)CC2`?
delta Tm Staurosporine positive control [1]: 7.21; ΔTm [1]: -0.68; inhibition [2]: -3.72%; delta Tm Staurosporine positive control [3]: 7.41; ΔTm [3]: -0.621; delta Tm Staurosporine positive control [4]: 2.89; ΔTm [4]: -1.08; delta Tm Staurosporine positive control [5]: 0.0474; ΔTm [5]: -0.47; delta Tm Staurosporine positive control [6]: 16.4; ΔTm [6]: -0.258; delta Tm Staurosporine positive control [7]: 6.75; ΔTm [7]: -0.509; delta Tm Staurosporine positive control [8]: 7.07; ΔTm [8]: -0.0258; delta Tm Staurosporine positive control [9]: 7.45; ΔTm [9]: -0.298; inhibition [10]: 25%; delta Tm Staurosporine positive control [11]: 7.15; ΔTm [11]: -0.443
